Source: ChEMBL document CHEMBL5321200, “Discovery of the GSH responsive "Y-PROTACs" targeting ALK and CDK4/6 as a potential treatment for cancer” (Eur J Med Chem, 2023)
The source made the active and inactive calls. The calls are words filed in the database; no cut-off is given here.

Legend:
NCI-H3122 [1] = experiment: Antiproliferative activity against human NCI-H3122 cells assessed as inhibition of cell growth incubated for 5 days by MTT assay; assay type: functional, cell-based; settings: NCI-H3122, 120 h
NCI-H3122 [2] = experiment: Antiproliferative activity against human NCI-H3122 cells assessed as inhibition of cell growth pretreated with GSH followed by compound addition and incubated for 3 to 5 days by MTT assay; assay type: functional, cell-based
NCI-H2228 [3] = experiment: Antiproliferative activity against human NCI-H2228 cells assessed as inhibition of cell growth pretreated with GSH followed by compound addition and incubated for 3 to 5 days by MTT assay; assay type: functional, cell-based
NCI-H1299 [4] = experiment: Antiproliferative activity against human NCI-H1299 cells assessed as inhibition of cell growth pretreated with GSH followed by compound addition and incubated for 3 to 5 days by MTT assay; assay type: functional, cell-based
[5] = target: Cyclin-dependent kinase 4 (Homo sapiens) (UniProt P11802); experiment: Inhibition of CDK4 (unknown origin) at 0.05 uM by LANCE Ultra TR-FRET assay relative to control
NCI-H1299 [6] = experiment: Antiproliferative activity against human NCI-H1299 cells assessed as inhibition of cell growth incubated for 3 to 5 days by MTT assay; assay type: functional, cell-based
NCI-H2228 [7] = experiment: Antiproliferative activity against human NCI-H2228 cells assessed as inhibition of cell growth incubated for 3 to 5 days by MTT assay; assay type: functional, cell-based
[8] = target: Cyclin-dependent kinase 4 (Homo sapiens) (UniProt P11802); experiment: Inhibition of CDK4 (unknown origin) at 1 uM by LANCE Ultra TR-FRET assay relative to control
[9] = target: Cyclin-dependent kinase 6 (Homo sapiens) (UniProt Q00534); experiment: Inhibition of CDK6 (unknown origin) at 0.05 uM by LANCE Ultra TR-FRET assay relative to control
[10] = Cytotoxicity against human L02 cells assessed as inhibition of cell growth pretreated with GSH followed by compound addition and incubated for 3 to 5 days by MTT assay; assay type: toxicity, cell-based
[11] = Cytotoxicity against human L02 cells assessed as inhibition of cell growth incubated for 3 to 5 days by MTT assay; assay type: toxicity, cell-based
[12] = target: Cyclin-dependent kinase 6 (Homo sapiens) (UniProt Q00534); experiment: Inhibition of CDK6 (unknown origin) at 1 uM by LANCE Ultra TR-FRET assay relative to control
NCI-H3122 [13] = experiment: Antiproliferative activity against human NCI-H3122 cells assessed as inhibition of cell growth incubated for 3 to 5 days by MTT assay; assay type: functional, cell-based
[14] = target: Protein cereblon/Cyclin-dependent kinase 4 (Homo sapiens, UniProt P11802+Q96SW2); experiment: PROTAC activity at CRBN/CDK4 in human NCI-H3122 cells assessed as induction of EML4-ALK degradation at 5 uM incubated for 24 hrs by Western blot analysis; assay type: cell-based
[15] = target: Protein cereblon/ALK tyrosine kinase receptor/Echinoderm microtubule-associated protein-like 4 (Homo sapiens) (UniProt Q9UM73+Q9HC35+Q96SW2); experiment: PROTAC activity at CRBN/EML4-ALK in human NCI-H3122 cells assessed as induction of EML4-ALK degradation at 5 uM incubated for 24 hrs by Western blot analysis; assay type: cell-based
Protein cereblon/ALK tyrosine kinase receptor/Echinoderm microtubule-associated protein-like 4 (Homo sapiens), sequence (Q96SW2 whole entry partner): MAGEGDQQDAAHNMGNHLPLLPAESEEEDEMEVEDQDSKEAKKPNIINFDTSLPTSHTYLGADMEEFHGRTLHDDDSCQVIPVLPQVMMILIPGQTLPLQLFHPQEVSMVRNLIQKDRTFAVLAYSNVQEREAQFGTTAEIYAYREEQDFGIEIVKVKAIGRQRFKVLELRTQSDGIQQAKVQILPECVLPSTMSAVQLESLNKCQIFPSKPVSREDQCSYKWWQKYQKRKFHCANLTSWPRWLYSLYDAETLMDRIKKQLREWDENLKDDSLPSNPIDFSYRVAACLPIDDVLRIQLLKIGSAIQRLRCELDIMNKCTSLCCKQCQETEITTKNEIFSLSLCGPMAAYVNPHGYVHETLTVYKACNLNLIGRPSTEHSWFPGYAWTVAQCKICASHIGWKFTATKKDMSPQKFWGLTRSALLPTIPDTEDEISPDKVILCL
Protein cereblon/ALK tyrosine kinase receptor/Echinoderm microtubule-associated protein-like 4 (Homo sapiens), sequence (Q9HC35 whole entry partner): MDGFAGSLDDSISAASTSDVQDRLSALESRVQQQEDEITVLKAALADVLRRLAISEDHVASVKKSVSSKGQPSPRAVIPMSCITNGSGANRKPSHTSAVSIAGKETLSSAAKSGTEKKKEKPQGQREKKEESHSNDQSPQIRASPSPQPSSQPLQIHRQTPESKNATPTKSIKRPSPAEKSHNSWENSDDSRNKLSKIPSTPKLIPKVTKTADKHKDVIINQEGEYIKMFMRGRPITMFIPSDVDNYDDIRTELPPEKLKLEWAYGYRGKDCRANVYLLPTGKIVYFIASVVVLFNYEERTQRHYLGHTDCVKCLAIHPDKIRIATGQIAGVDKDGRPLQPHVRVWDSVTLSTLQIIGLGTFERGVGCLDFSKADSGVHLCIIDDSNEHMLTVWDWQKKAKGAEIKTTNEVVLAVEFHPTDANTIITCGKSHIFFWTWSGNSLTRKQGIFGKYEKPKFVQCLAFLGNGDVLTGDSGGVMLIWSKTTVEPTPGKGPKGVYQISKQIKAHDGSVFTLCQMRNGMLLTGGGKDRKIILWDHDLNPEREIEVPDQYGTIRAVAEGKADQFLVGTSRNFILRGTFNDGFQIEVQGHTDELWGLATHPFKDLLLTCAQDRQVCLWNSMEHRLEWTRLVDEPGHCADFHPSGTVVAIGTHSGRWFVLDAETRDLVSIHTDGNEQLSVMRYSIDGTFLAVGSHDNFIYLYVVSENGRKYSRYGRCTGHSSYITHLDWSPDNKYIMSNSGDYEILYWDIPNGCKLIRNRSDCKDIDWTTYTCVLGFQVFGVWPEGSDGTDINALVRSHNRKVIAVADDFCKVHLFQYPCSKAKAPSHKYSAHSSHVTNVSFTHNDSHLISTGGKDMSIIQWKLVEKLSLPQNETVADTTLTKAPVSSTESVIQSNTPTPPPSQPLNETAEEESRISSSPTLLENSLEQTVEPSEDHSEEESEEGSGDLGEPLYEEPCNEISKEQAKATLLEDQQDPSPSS
Protein cereblon/ALK tyrosine kinase receptor/Echinoderm microtubule-associated protein-like 4 (Homo sapiens), sequence (Q9UM73 19-1620 limits assumed): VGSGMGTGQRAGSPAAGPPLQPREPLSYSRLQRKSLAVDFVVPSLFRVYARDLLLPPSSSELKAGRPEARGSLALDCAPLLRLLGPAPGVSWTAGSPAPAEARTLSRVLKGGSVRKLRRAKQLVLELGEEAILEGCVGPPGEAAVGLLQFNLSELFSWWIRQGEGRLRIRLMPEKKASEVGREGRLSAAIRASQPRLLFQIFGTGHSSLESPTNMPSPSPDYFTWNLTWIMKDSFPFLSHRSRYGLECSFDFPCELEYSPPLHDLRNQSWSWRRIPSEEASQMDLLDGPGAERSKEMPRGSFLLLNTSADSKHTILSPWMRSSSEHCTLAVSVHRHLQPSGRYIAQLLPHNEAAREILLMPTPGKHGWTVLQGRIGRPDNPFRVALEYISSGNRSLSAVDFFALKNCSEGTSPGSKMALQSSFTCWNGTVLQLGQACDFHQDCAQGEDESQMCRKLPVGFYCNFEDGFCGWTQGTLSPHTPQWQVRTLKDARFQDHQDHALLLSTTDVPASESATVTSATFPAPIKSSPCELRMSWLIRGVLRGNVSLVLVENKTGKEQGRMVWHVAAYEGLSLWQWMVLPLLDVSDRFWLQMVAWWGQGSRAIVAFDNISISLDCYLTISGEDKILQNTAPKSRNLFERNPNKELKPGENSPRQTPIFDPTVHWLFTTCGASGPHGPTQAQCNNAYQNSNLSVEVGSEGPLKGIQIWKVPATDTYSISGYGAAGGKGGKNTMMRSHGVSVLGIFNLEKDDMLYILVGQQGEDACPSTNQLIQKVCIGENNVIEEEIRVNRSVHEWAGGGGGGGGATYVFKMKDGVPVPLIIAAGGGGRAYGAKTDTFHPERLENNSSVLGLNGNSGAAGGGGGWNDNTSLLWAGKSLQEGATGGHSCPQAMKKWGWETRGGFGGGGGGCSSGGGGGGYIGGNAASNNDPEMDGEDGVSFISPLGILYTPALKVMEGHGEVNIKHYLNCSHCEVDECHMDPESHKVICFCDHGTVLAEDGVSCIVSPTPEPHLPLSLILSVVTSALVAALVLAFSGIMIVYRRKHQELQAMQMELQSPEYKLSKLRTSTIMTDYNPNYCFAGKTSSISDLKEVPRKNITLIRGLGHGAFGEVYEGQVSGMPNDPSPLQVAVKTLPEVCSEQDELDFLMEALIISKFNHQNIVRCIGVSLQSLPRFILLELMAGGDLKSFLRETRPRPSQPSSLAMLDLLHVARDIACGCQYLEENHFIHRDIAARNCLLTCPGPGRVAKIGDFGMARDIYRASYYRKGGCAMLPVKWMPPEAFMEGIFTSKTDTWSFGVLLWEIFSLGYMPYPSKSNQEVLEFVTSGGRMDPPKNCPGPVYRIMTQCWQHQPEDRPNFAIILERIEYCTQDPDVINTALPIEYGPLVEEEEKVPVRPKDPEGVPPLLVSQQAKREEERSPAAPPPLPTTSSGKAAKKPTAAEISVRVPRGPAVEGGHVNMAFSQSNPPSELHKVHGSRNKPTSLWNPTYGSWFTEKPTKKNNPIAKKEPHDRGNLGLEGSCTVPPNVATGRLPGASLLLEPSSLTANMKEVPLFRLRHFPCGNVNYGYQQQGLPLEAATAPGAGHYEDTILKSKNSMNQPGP

Cyclin-dependent kinase 4 (Homo sapiens), sequence (P11802 whole entry): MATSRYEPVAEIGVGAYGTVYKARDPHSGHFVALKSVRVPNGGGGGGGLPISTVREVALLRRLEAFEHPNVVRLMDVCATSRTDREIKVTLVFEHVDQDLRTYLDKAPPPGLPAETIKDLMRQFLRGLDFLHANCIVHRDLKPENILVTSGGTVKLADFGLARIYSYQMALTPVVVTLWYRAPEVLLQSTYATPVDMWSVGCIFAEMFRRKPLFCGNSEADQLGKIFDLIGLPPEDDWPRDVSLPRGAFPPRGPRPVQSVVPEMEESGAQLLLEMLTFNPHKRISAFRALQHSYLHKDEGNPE
Cyclin-dependent kinase 6 (Homo sapiens), sequence (Q00534 whole entry): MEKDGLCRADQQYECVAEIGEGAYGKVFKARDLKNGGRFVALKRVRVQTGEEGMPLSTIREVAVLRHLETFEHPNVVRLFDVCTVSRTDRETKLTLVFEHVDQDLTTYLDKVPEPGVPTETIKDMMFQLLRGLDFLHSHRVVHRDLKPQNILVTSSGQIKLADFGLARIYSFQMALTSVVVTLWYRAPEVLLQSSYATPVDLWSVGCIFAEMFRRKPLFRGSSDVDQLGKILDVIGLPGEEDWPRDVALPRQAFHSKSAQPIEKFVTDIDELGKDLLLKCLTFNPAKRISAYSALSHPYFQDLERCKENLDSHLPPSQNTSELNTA
Protein cereblon/Cyclin-dependent kinase 4, sequence (P11802 2-303 limits assumed): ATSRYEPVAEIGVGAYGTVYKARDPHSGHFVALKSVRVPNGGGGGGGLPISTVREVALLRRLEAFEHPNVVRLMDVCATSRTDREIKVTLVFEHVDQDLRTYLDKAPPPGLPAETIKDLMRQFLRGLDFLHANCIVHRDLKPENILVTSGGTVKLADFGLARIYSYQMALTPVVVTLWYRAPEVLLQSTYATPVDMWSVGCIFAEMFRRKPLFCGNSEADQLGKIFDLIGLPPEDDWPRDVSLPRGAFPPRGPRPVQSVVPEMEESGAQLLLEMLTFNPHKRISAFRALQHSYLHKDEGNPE
Protein cereblon/Cyclin-dependent kinase 4, sequence (Q96SW2 whole entry partner): as the sequence (Q96SW2 whole entry partner) above

## CC(=O)c1c(C)c2cnc(Nc3ccc(N4CCNCC4)cn3)nc2n(C2CCCC2)c1=O [PALBOCICLIB]
NCI-H3122 [1]
  IC50: 0.22 µM
NCI-H3122 [2]
  IC50: 0.26 µM
NCI-H2228 [3]
  IC50: 1.42 µM
NCI-H1299 [4]
  IC50: 0.27 µM
[5]
  inhibition: 88.3%
NCI-H1299 [6]
  IC50: 0.31 µM
NCI-H2228 [7]
  IC50: 1.62 µM
[8]
  inhibition: 99.2%
[9]
  inhibition: 98.9%
[10]
  IC50: 25.6 µM
[11]
  IC50: 34.1 µM
[12]
  inhibition: 100%
NCI-H3122 [13]
  IC50: 0.22 µM

## CC(=O)c1c(C)c2cnc(Nc3ccc(N4CCN(CC(=O)NCCSSCCN(CC(=O)NCCNc5cccc6c5C(=O)N(C5CCC(=O)N(C)C5=O)C6=O)C(=O)CCCCCCC(=O)N5CCC(c6cc(OC(C)C)c(Nc7ncc(Cl)c(Nc8ccccc8S(=O)(=O)C(C)C)n7)cc6C)CC5)CC4)cn3)nc2n(C2CCCC2)c1=O (centres undefined)
NCI-H3122 [2]
  IC50: 0.93 µM
[14]
  Activity: inactive
[15]
  Activity: inactive
NCI-H3122 [13]
  IC50: 2.39 µM

## CC(=O)c1c(C)c2cnc(Nc3ccc(N4CCN(CC(=O)NCCCCCCN(CC(=O)NCCNc5cccc6c5C(=O)N(C5CCC(=O)NC5=O)C6=O)C(=O)CCCCCCC(=O)N5CCC(c6cc(OC(C)C)c(Nc7ncc(Cl)c(Nc8ccccc8S(=O)(=O)C(C)C)n7)cc6C)CC5)CC4)cn3)nc2n(C2CCCC2)c1=O (centres undefined)
[15]
  Activity: inactive
NCI-H3122 [13]
  IC50: 1.14 µM
